Values of other authors, collected in US7115565B2, “Chemotherapeutic microemulsion compositions of paclitaxel with improved oral bioavailability” (Pharmacia & Upjohn Company, priority 2001, dated 2006).

Details: reported in the background

CC(=O)O[C@H]1C(=O)[C@@]2(C)[C@H]([C@H](OC(=O)c3ccccc3)[C@]3(O)C[C@H](OC(=O)[C@H](O)[C@@H](NC(=O)c4ccccc4)c4ccccc4)C(C)=C1C3(C)C)[C@]1(OC(C)=O)CO[C@@H]1C[C@@H]2O [Paclitaxel]
oral bioavailability: very low
